Results from patent US20100048729A1, “Composition based on xanthoxyline and its use in cosmetic” (PIERRE FABRE DERMO-COSMETIQUE, priority 2006, published 2010).

What was measured:
3T3F442A preadipocytes [1] = assay: Adipocyte differentiation: triglyceride accumulation (Adipored) in differentiated 3T3F442A cells; assay type: cell-based; settings: 168 h, 0.3 μg/ml, 7 days differentiation, FIG. 2, read-out: inhibition (accumulation of triglycerides), optimum activity
Procedure: The Applicant has studied on the one hand the effect of a dry extract of Zanthoxylum bungeanum, and on the other hand the effect of xanthoxyline, on the process of adipocyte differentiation and proliferation. […] 3T3F442A prepadipocytes are capable of differentiating into adipocytes in the presence of insulin, 3-isobutyl-1-methylxanthine and dexamethasone (the Journal of Pharmacology and Experimental Therapeutics: RIVAL Y., 2004, 311(2): 467-475). […] 3T3F442A cells are cultured in DMEM medium (GIBCOBRL, ref 32430-027) containing 10% foetal calf serum at 37° C., 5% CO2 in a humid atmosphere. They are seeded at 5000 cells per well (96-well plate). […] The visualisation and quantification of intracellular lipid vacuoles in the differentiated cells are analysed using Adipored reagent, a fluorescent colorant specific to triglycerides (neutral and amphiphilic lipids) (Journal of Cell Biology: […]., 1985, 100: 965-973). The culture medium is removed and the cells are rinsed with phosphate buffer D-PBS (GIBCOBRL, ref 21300-058). Adipored reagent is then added. After incubation for 10 minutes at ambient temperature, the fluorescence is measured (excitation 485 nm, emission 530 nm). A histological analysis using a confocal Laser microscope (ZEISS LSM 410 Invert Laser scan Microscope) is also carried out at 543 nm.

Candida albicans = settings: literature; cited from earlier work
Penicillium expansum = settings: literature; cited from earlier work
[2] = test system: pathogenic fungi such as Trichophyton; settings: literature; cited from earlier work
[3] = test system: gram-positive and gram-negative bacteria; settings: literature; cited from earlier work
3T3F442A preadipocytes [4] = settings: adipocyte differentiation model over a long culture period; literature; cited from earlier work

Molecule	inhibition at 0.3 µg/mL (3T3F442A preadipocytes [1])	Anti-fungal activity (Candida albicans)	Anti-fungal activity (Penicillium expansum)	Anti-fungal activity [2]	Anti-bacterial activity [3]	inhibition of the accumulation of triglycerides (3T3F442A preadipocytes [4])
COc1cc(O)c(C(C)=O)c(OC)c1 [Xanthoxyline, 4,6-dimethoxy-2-hydroxyacetophenone]	12%	moderate	moderate	moderate	mediocre	
TNFα						known to inhibit the accumulation of triglycerides
